Source: patent US8088806B2 (Achillion Pharmaceuticals, Inc., priority 2005, dated 2012)

Test system: HCV replicon
Experiment: Replicon based assay of HCV replication inhibition (NPT ELISA)
Assay type: cell-based, Hepatitis C virus
Conditions: Hepatitis C virus, Huh-7, 72 h, Table I; Huh-7 HCV replicon-containing cells, three days; read-out: Activity
In short: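 Huh-7 cells carrying a bicistronic HCV replicon (neo, EMCV-IRES-driven NS3–NS5B) treated overnight after seeding with usually 6 concentrations, 10 to 0.03 micromolar, for three days at 37° C without G418. Replication read as NPT level by captured ELISA; matched-DMSO wells and interferon alpha as controls.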

For `c1ccc(Oc2ccc(CCNc3nc(-c4cccnc4)cs3)cc2)cc1` [compound 84, N-(4-phenoxyphenethyl)-4-(pyridin-3-yl)thiazol-2-amine], which EC50 is on record?
Its EC50 is greater than 10000 nM.

How did the EC50 turn out when `Cc1sc(Nc2cccc(OCc3ccccc3)c2)nc1-c1ccc(CC(=O)O)cc1` [compound 192, 2-(4-(2-(3-(benzyloxy)phenylamino)-5-methylthiazol-4-yl)phenyl)acetic acid] was run?
The EC50 was less than 1000 nM.

With `Clc1ccc(-c2csc(Nc3cccc(Oc4ccccc4)c3)n2)cc1` [compound 34, 4-(4-chlorophenyl)-N-(3-phenoxyphenyl)thiazol-2-amine] as the compound, how does the EC50 read?
Its EC50 is less than 1000 nM.

Which EC50 does the source give for `CCCCCOc1ccc(Nc2nc(-c3ccc(C(=O)O)cc3)cs2)cc1C(F)(F)F` [compound 155, 4-(2-(3-(trifluoromethyl)-4-(pentyloxy)phenylamino)thiazol-4-yl)benzoic acid] here?
Its EC50 is less than 1000 nM.

Which EC50 does the source give for `CCCCCOc1ccc(Nc2nc(C(=O)NCc3ccc(S(N)(=O)=O)cc3)cs2)cc1C(F)(F)F` [compound 153, 2-(4-(pentyloxy)-3-(trifluorornethyl)phenylamino)-N-(4-aminosulfonylbenzyl)thiazole-4-carboxamide] here?
Its EC50 is 1000 to 10000 nM.

With `CCCCCOc1ccc(Nc2nc(-c3ccc(C(=O)N(C)CC(N)=O)nc3)cs2)cc1C(F)(F)F` [compound 221, 5-(2-(3-(trifluoromethyl)-4-(pentyloxy)phenylamino)thiazol-4-yl)-N-(carbamoylmethyl)-N-methylpyridine-2-carboxamide] as the compound, how does the EC50 read?
Its EC50 is less than 1000 nM.

How did the EC50 turn out when `CCCCCOc1ccc(Nc2nc(-c3cccnc3)cs2)cn1` [compound 67, 6-(pentyloxy)-N-(4-(pyridin-3-yl)thiazol-2-yl)pyridin-3-amine] was run?
Its EC50 is less than 1000 nM.

For `Fc1ccc(-c2csc(Nc3ccc(Cl)c(C(F)(F)F)c3)n2)c(F)c1` [compound 61, N-(4-chloro-3-(trifluoromethyl)phenyl)-4-(2,4-difluorophenyl)thiazol-2-amine], which EC50 is on record?
The EC50 was less than 1000 nM.

Which EC50 does the source give for `c1ccc(COc2cccc(Nc3nc(-c4cccnc4)cs3)c2)cc1` [compound 87, N-(3-(benzyloxy)phenyl)-4-(pyridin-3-yl)thiazol-2-amine] here?
The EC50 was less than 1000 nM.

Same assay, conditions: Hepatitis C virus, Huh-7, 72 h, Table III; Huh-7 HCV replicon-containing cells, three days; read-out: Activity

How did the EC50 turn out when `CCCCCCCCOc1ccc(Nc2nc(-c3cncc(OC)c3)cs2)cc1` [compound 657, 4-(5-methoxypyridin-3-yl)-N-(4-(octyloxy)phenyl)thiazol-2-amine] was run?
The EC50 was 1000 to 10000 nM.

With `CCCCCCCCOc1ccc(Nc2nc(-c3ccc4c(c3)COC4=O)cs2)cc1C(F)(F)F` [compound 660, 5-(2-(3-(trifluoromethyl)-4-(octyloxy)phenylamino)thiazol-4-yl)isobenzofuran-1(3H)-one] as the compound, how does the EC50 read?
The EC50 was less than 1000 nM.

Which EC50 does the source give for `CCCCCCCCOc1ccc(Nc2nc(-c3cccc(OC)n3)cs2)cc1C(F)(F)F` [compound 705, N-(3-(trifluoromethyl)-4-(octyloxy)phenyl)-4-(6-methoxypyridin-2-yl)thiazol-2-amine] here?
Its EC50 is less than 1000 nM.

How did the EC50 turn out when `CCCCCCCc1ccc(Nc2nc(-c3ccc(OCC(=O)O)cc3)c(C)s2)cc1` [compound 562, 2-(4-(2-(4-heptylphenylamino)-5-methylthiazol-4-yl)phenoxy)acetic acid] was run?
Its EC50 is less than 1000 nM.

How did the EC50 turn out when `CCCCCCCCOc1ccc(Nc2nc(Cc3ccc(F)cc3)cs2)cc1C(F)(F)F` [compound 629, 4-(4-fluorobenzyl)-N-(3-(trifluoromethyl)-4-(octyloxy)phenyl)thiazol-2-amine] was run?
Its EC50 is less than 1000 nM.

With `CCCCCCCc1ccc(Nc2nc(-c3ccccn3)cs2)cc1` [compound 563, N-(4-heptylphenyl)-4-(pyridin-2-yl)thiazol-2-amine] as the compound, how does the EC50 read?
The EC50 was less than 1000 nM.

With `CCCCCCCc1ccc(Nc2nc(Cc3cccc(F)c3)cs2)cc1` [compound 519, 4-(3-fluorobenzyl)-N-(4-heptylphenyl)thiazol-2-amine] as the compound, how does the EC50 read?
Its EC50 is 1000 to 10000 nM.

With `CCCCCCCc1nc2cc(Nc3nc(-c4cnc(OC)nc4)cs3)ccc2o1` [compound 717, 2-heptyl-N-(4-(2-methoxypyrimidin-5-yl)thiazol-2-yl)benzo[d]oxazol-5-amine] as the compound, how does the EC50 read?
The EC50 was less than 1000 nM.

For `CCCCCOc1ccc(Nc2nc(Cc3ccc(Cl)cc3)cs2)cc1F` [compound 636, 4-(4-chlorobenzyl)-N-(3-fluoro-4-(pentyloxy)phenyl)thiazol-2-amine], which EC50 is on record?
Its EC50 is greater than 10000 nM.

Same assay, conditions: Hepatitis C virus, replicon based assay of HCV replication inhibition; Table II; read-out: Activity

Which EC50 does the source give for `CCCCCCCCOc1ccc(Nc2nc(-c3cccc(C(=O)O)c3)cs2)cc1` [compound 384, 3-(2-(4-(octyloxy)phenylamino)thia-zol-4-yl)benzoic acid] here?
Its EC50 is less than 1000 nM.

Which EC50 does the source give for `CCCCCOc1ccc(Nc2nc(N3CCCC3C(=O)O)cs2)cc1C(F)(F)F` (stereo not drawn) [compound 368, 1-(2-(4-(pentyloxy)-3-(trifluoromethyl)phenyl-amino)thiazol-4-yl)pyrrolidine-2-carboxylic acid] here?
The EC50 was 1000 to 10000 nM.

Which EC50 does the source give for `CCCCCOc1ccc(Nc2nc(CN3CCC(O)C3)cs2)cc1F` (stereo not drawn) [compound 288, 1-((2-(3-fluoro-4-(pentyloxy)phenylamino)thia-zzol-4-yl)methyl)pyrrolidin-3-ol] here?
Its EC50 is less than 1000 nM.

For `CCCCCOc1ccc(Nc2nc(-c3cc4ccccc4o3)cs2)cc1C(F)(F)F` [compound 413, 4-(benzofuran-2-yl)-N-(3-(trifluoromethyl)-4-(pentyloxy)phenyl)thiazol-2-amine], which EC50 is on record?
The EC50 was less than 1000 nM.

With `CCCCCCCOc1ccc(Nc2nc(-c3ccc4[nH]c(=O)oc4c3)cs2)cc1` [compound 395, 6-(2-(4-(heptyloxy)phenylamino)thia-zol-4-yl)benzo[d]exazol-2(3H)-one] as the compound, how does the EC50 read?
The EC50 was less than 1000 nM.

`CCCCCOc1ccc(Nc2nc(CN3CCC(N(C)C)C3)cs2)cc1F` (stereo not drawn) [compound 287, 4-((3-(dimethylamino)pyrrolidin-1-yl)methyl)-N-(3-fluoro-4-(pentyloxy)pheenyl)thiazol-2-amine] was tested. Which EC50 did it give?
The EC50 was less than 1000 nM.

For `CCCCCOc1ccc(Nc2nc(Cc3cccc(F)c3)cs2)cc1C(F)(F)F` [compound 517, 4-(3-fluorobenzyl)-N-(3-(trifluoromethyl)-4-(pentyloxy)phenyl)thiazol-2-amine], which EC50 is on record?
Its EC50 is 1000 to 10000 nM.

With `CCCCCOc1ccc(Nc2nc([C@H]3CCCN(C)C3)cs2)cc1C(F)(F)F` [compound 235, (S)-4-(1-methylpiperidin-3-yl)-N-(4-(pentyloxy)-3-(trifluoromethyl)phenyl)thia-zol-2-amine] as the compound, how does the EC50 read?
Its EC50 is less than 1000 nM.

`CCCCCCCOc1ccc(Nc2nc(-c3cccc(C(=O)O)c3)cs2)cc1` [compound 396, 3-(2-(4-(heptyloxy)phenylamino)thia-zol-4-yl)benzoic acid] was tested. Which EC50 did it give?
The EC50 was less than 1000 nM.

With `CCCCCCCCOc1ccc(Nc2nc(-c3cccc(O)c3)cs2)cc1` [compound 436, 3-(2-(4-(octyloxy)phenylamino)thia-zol-4-yl)phenol] as the compound, how does the EC50 read?
The EC50 was less than 1000 nM.

Which EC50 does the source give for `CCCCCCCOc1ccc(Nc2nc(-c3ccc(-c4ccccn4)s3)cs2)cc1` [compound 399, N-(4-(heptyloxy)phenyl)-4-(5-(pyridin-2-yl)thiophen-2-yl)thiazol-2-amine] here?
The EC50 was less than 1000 nM.

How did the EC50 turn out when `COc1ccc(-c2nc(NC(=O)c3ccccc3)sc2-c2ccc(OC)cc2)cc1` [compound 335, N-(4,5-bis(4-methoxyphenyl)thiazol-2-yl)benzamide] was run?
The EC50 was 1000 to 10000 nM.

`Fc1ccc(-c2csc(Nc3ccc(OC4CCCC4)c(C(F)(F)F)c3)n2)cc1` [compound 241, N-(4-(cyclopentyloxy)-3-(trifluoromethyl)phenyl)-4-(4-fluorophenyl)thiazol-2-amine] was tested. Which EC50 did it give?
The EC50 was less than 1000 nM.

Same assay, conditions: Hepatitis C virus, replicon based assay of HCV replication inhibition; Table IV; read-out: Activity

`c1ccc(-c2nsc(Nc3nc(-c4cccnc4)cs3)n2)cc1` [compound 796, 3-phenyl-N-(4-(pyridin-3-yl)thiazol-2-yl)-1,2,4-thiadiazol-5-amine] was tested. Which EC50 did it give?
The EC50 was greater than 10000 nM.

How did the EC50 turn out when `Fc1ccc(Nc2nc(-c3cccnc3)cs2)c(F)c1F` [compound 889, N-(2,3,4-trifluorophenyl)-4-(pyridin-3-yl)thiazol-2-amine] was run?
The EC50 was greater than 10000 nM.

For `CCOC(=O)Cc1ccc(-c2csc(Nc3ccc(OCCCOc4ccccc4)cc3)n2)s1` [compound 931, ethyl 2-(5-(2-(4-(3-phenoxypropoxy)phenylamino)thiazol-4-yl)thiophen-2-yl)acetate], which EC50 is on record?
Its EC50 is 1000 to 10000 nM.

`FC(F)(F)c1cc(Nc2nc(-c3cccc4cccnc34)cs2)ccc1OCC1CCCCC1` [compound 774, N-(4-(cyclohexylmethoxy)-3-(trifluoromethyl)phenyl)-4-(quinolin-8-yl)thiazol-2-amine] was tested. Which EC50 did it give?
The EC50 was less than 1000 nM.

With `COc1ncc(-c2csc(Nc3ccc(OC/C=C(\C)CCC=C(C)C)c(C(F)(F)F)c3)n2)cn1` [compound 775, N-(4-((E)-3,7-dimethylocta-2,6-dienyloxy)-3-(trifluoromethyl)phenyl)-4-(2-methoxypyrimidin-5-yl)thiazol-2-amine] as the compound, how does the EC50 read?
The EC50 was less than 1000 nM.

How did the EC50 turn out when `FC(F)(F)c1ccc(-c2cc(Nc3nc(-c4cccnc4)cs3)on2)cc1` [compound 793, 3-(4-(trifluoromethyl)phenyl)-N-(4-(pyridin-3-yl)thiazol-2-yl)isoxazol-5-amine] was run?
Its EC50 is greater than 10000 nM.

With `Fc1ccc(-c2csc(Nc3ccc(OCCCc4cccnc4)c(C(F)(F)F)c3)n2)cc1` [compound 806, N-(4-(3-(pyridin-3-yl)propoxy)-3-(trifluoromethyl)phenyl)-4-(4-fluorophenyl)thiazol-2-amine] as the compound, how does the EC50 read?
Its EC50 is 1000 to 10000 nM.

`CCCCCOc1ccc(Nc2nc(-c3cccnc3)c(F)s2)cc1C(F)(F)F` [compound 950, 5-fluoro-N-(3-(trifluoromethyl)-4-(pentyloxy)phenyl)-4-(pyridin-3-yl)thiazol-2-amine] was tested. Which EC50 did it give?
Its EC50 is less than 1000 nM.

With `O=S(=O)(Nc1ccccn1)c1ccc(Nc2nc(-c3cccnc3)cs2)cc1` [compound 911] as the compound, how does the EC50 read?
The EC50 was greater than 10000 nM.

How did the EC50 turn out when `COc1ncc(-c2csc(Nc3ccc(OCCCCc4ccccc4)c(C(F)(F)F)c3)n2)cn1` [compound 828, N-(4-(4-phenylbutoxy)-3-(trifluoromethyl)phenyl)-4-(2-methoxypyrimidin-5-yl)thiazol-2-amine] was run?
The EC50 was less than 1000 nM.

With `CCCCCCCCOc1ccc(Nc2nc(-c3ccc(OC)nn3)cs2)cc1C(F)(F)F` [compound 841, N-(3-(trifluoromethyl)-4-(octyloxy)phenyl)-4-(6-methoxypyridazin-3-yl)thiazol-2-amine] as the compound, how does the EC50 read?
The EC50 was less than 1000 nM.
